From patent publication US8921307B2, “Synthetic linear apelin mimetics for the treatment of heart failure” (priority 2012, dated 2014) come the findings set out here.

The target in data set [1] is T1, hAPJ (Homo sapiens, UniProt P35414).
T1 sequence (P35414 1-380): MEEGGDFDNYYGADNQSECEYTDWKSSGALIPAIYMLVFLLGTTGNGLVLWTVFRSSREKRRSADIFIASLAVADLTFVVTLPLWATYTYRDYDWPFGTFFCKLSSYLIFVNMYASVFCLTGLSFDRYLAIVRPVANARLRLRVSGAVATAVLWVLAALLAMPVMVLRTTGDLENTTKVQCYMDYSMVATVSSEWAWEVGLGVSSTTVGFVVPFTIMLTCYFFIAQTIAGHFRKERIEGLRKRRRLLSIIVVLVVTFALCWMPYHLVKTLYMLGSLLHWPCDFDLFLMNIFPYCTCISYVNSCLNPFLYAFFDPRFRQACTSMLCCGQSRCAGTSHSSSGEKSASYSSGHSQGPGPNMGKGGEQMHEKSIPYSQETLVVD
The data set is described as follows: hAPJ Calcium Flux Assay. The data set is classed as cell-based. Conditions: Chem-5 APJ stable cells, FLIPR calcium flux stimulation; read-out: hAPJ Ca^2+ Flux EC50. In outline:
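Chem-5 cells stably expressing APJ, loaded 1 h with Calcium 4 dye plus 2.5 mM probenecid at 37 °C. Peptides added at final […] in HBSS/HEPES/0.1% BSA, in triplicate.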

A short description of data set [2]: Surrogate Activity-Based Plasma Stability Assay. The data set is classed as in vitro ADME. Conditions: rat, Surrogate activity-based Plasma stability t½. The protocol: Stability half-life was then calculated by the formula, t½=0.693÷k Surrogate Activity-Based Plasma Stability Assay: […]
2) Calculate slope of value above and […]

pEC50: −log10 of the molar value. Where a SMILES comes first, the peptide text is derived from it. [ ]: non-standard residue; d: D form. 2Nal = N[C@@H](Cc1ccc2ccccc2c1)C(=O)O; dTic = O=C(O)[C@H]1Cc2ccccc2CN1; pGlu = O=C1CC[C@@H](C(=O)O)N1; dNle = CCCC[C@@H](N)C(=O)O; Nle = CCCC[C@H](N)C(=O)O

Turning to `CCCC[C@@H](NC(=O)[C@@H]1CCCN1C(=O)CNC(=O)[C@H](CCCCN)NC(=O)[C@H](Cc1c[nH]cn1)NC(=O)[C@@H](CC(=O)O)NC(=O)[C@H](CC(C)C)NC(=O)[C@H](CCCNC(=N)N)NC(=O)[C@@H]1CCCN1C(=O)[C@H](CCCNC(=N)N)NC(=O)[C@@H]1CCC(=O)N1)C(=O)N[C@H](C)C(=O)N[C@H](Cc1ccccc1)C(=O)O` [Example 8, pE-R-P-R-L-d-H-K-G-P-nle-a-f-OH] ([pGlu]RPRL[dD]HKGP[dNle][dA][dF]-OH), in data set [1], the pEC50 is 8.11. Also, the half-life in data set [2] was > 16.7 h.
The corresponding values for `CCCC[C@@H](NC(=O)[C@@H]1CCCN1C(=O)CNC(=O)[C@H](CCCCN)NC(=O)[C@H](Cc1c[nH]cn1)NC(=O)[C@@H](C)NC(=O)[C@H](Cc1ccc(O)cc1)NC(=O)[C@H](CCCNC(=N)N)NC(=O)[C@@H]1CCCN1C(=O)[C@H](CCCNC(=N)N)NC(=O)[C@@H]1CCC(=O)N1)C(=O)N[C@H](C)C(=O)N[C@H](Cc1ccccc1)C(=O)O` [Example 28, pE-R-P-R-Y-a-H-K-G-P-nle-a-f-OH] ([pGlu]RPRY[dA]HKGP[dNle][dA][dF]-OH) are 6.94 and > 16.7 h.
For `CCCC[C@@H](NC(=O)[C@@H]1CCCN1C(=O)CNC(=O)[C@H](CCCCN)NC(=O)[C@@H](C)NC(=O)[C@H](CO)NC(=O)[C@H](CC(C)C)NC(=O)[C@H](CCCNC(=N)N)NC(=O)[C@@H]1CCCN1C(=O)[C@H](CCCNC(=N)N)NC(=O)[C@@H]1CCC(=O)N1)C(=O)N[C@H](C)C(=O)N[C@H](Cc1ccccc1)C(=O)O` [Example 51, pE-R-P-R-L-S-a-K-G-P-nle-a-f-OH] ([pGlu]RPRLS[dA]KGP[dNle][dA][dF]-OH), in that order: 8.07 and > 16.7 h.
For `CCCC[C@H](NC(=O)[C@@H]1CCCN1C(=O)CNC(=O)[C@@H](CCCCN)NC(=O)[C@H](Cc1c[nH]cn1)NC(=O)[C@@H](C)NC(=O)[C@H](CC(C)C)NC(=O)[C@H](CCCNC(=N)N)NC(=O)[C@@H]1CCCN1C(=O)[C@H](CCCNC(=N)N)NC(=O)[C@@H]1CCC(=O)N1)C(=O)N[C@H](C)C(=O)N[C@H](Cc1ccccc1)C(=O)O` [Example 31, pE-R-P-R-L-a-H-k-G-P-Nle-a-f-OH], in that order: 7.00 and 5.78 h.
On to `CCCC[C@@H](NC(=O)[C@@H]1CCCN1C(=O)CNC(=O)[C@H](CCC(=O)O)NC(=O)[C@H](Cc1c[nH]cn1)NC(=O)[C@@H](C)NC(=O)[C@H](CC(C)C)NC(=O)[C@H](CCCNC(=N)N)NC(=O)[C@@H]1CCCN1C(=O)[C@H](CCCNC(=N)N)NC(=O)[C@@H]1CCC(=O)N1)C(=O)N[C@H](C)C(=O)N[C@H](Cc1ccccc1)C(=O)O` [Example 60, pE-R-P-R-L-a-H-E-G-P-nle-a-f-OH] ([pGlu]RPRL[dA]HEGP[dNle][dA][dF]-OH), for which the negative-log EC50 (pEC50) in data set [1] is 6.70. Besides, the half-life in data set [2] is > 16.7 h.
The corresponding values for `CCCC[C@H](NC(=O)[C@@H]1CCCN1C(=O)CNC(=O)[C@H](CCCCN)NC(=O)[C@H](Cc1c[nH]cn1)NC(=O)[C@@H](C)NC(=O)[C@H](CC(C)C)NC(=O)[C@H](CCCNC(=N)N)NC(=O)[C@@H]1CCCN1C(=O)[C@H](CCCNC(=N)N)NC(=O)[C@@H]1CCC(=O)N1)C(=O)N[C@H](C)C(=O)N[C@@H](Cc1ccccc1)C(=O)O` [Example 39, pE-R-P-R-L-a-H-K-G-P-Nle-a-F-OH] are 8.35 and 14.8 h.
The corresponding values for `CCCC[C@@H](NC(=O)[C@@H]1CCCN1C(=O)[C@H](CC(=O)O)NC(=O)[C@H](CCCCN)NC(=O)[C@H](Cc1c[nH]cn1)NC(=O)[C@@H](C)NC(=O)[C@H](CC(C)C)NC(=O)[C@H](CCCNC(=N)N)NC(=O)[C@@H]1CCCN1C(=O)[C@H](CCCNC(=N)N)NC(=O)[C@@H]1CCC(=O)N1)C(=O)N[C@H](C)C(=O)N[C@H](Cc1ccccc1)C(=O)O` [Example 62, pE-R-P-R-L-a-H-K-D-P-nle-a-f-OH] ([pGlu]RPRL[dA]HKDP[dNle][dA][dF]-OH) are 7.02 and 7.9 h.
For `CCCC[C@H](NC(=O)[C@@H]1CCCN1C(=O)CNC(=O)[C@H](CCCCN)NC(=O)[C@H](Cc1c[nH]cn1)NC(=O)[C@@H](C)NC(=O)[C@H](CC(C)C)NC(=O)[C@H](CCCNC(=N)N)NC(=O)[C@@H]1CCCN1C(=O)[C@H](CCCNC(=N)N)NC(=O)[C@@H]1CCC(=O)N1)C(=O)N1CCC[C@H]1C(=O)N[C@H](Cc1ccccc1)C(=O)O` [Example 34, pE-R-P-R-L-a-H-K-G-P-Nle-P-f-OH] ([pGlu]RPRL[dA]HKGP[Nle]P[dF]-OH), in that order: 7.46 and 0.387 h.
On to `CCCC[C@@H](NC(=O)[C@@H]1CCCN1C(=O)CNC(=O)[C@H](CCCCN)NC(=O)[C@H](Cc1c[nH]cn1)NC(=O)[C@@H](C)NC(=O)[C@H](Cc1ccc2ccccc2c1)NC(=O)[C@H](CCCNC(=N)N)NC(=O)[C@@H]1CCCN1C(=O)[C@H](CCCNC(=N)N)NC(=O)[C@@H]1CCC(=O)N1)C(=O)N[C@H](C)C(=O)N[C@H](Cc1ccccc1)C(=O)O` [Example 25, pE-R-P-R-(2-Nal)-a-H-K-G-P-nle-a-f-OH] ([pGlu]RPR[2Nal][dA]HKGP[dNle][dA][dF]-OH), for which the pEC50 in data set [1] is 7.16. Also, the half-life in data set [2] stood at 4.03 h.
For the molecule `CCCC[C@@H](NC(=O)[C@@H]1CCCN1C(=O)CNC(=O)[C@H](CCCCN)NC(=O)[C@H](Cc1c[nH]cn1)NC(=O)[C@@H](C)NC(=O)[C@H](CC(C)C)NC(=O)[C@H](CCCNC(=N)N)NC(=O)[C@@H]1CCCN1C(=O)[C@H](CCCNC(=N)N)NC(=O)[C@@H]1CCC(=O)N1)C(=O)N[C@H](C)C(=O)N1Cc2ccccc2C[C@@H]1C(=O)O` [Example 26, pE-R-P-R-L-a-H-K-G-P-nle-a-tic-OH] ([pGlu]RPRL[dA]HKGP[dNle][dA][dTic]-OH), the negative-log EC50 (pEC50) in data set [1] was 8.77. Besides, the half-life in data set [2] worked out at 16.4 h.
For `CCCC[C@@H](NC(=O)[C@@H]1CCCN1C(=O)CNC(=O)[C@H](CCCCN)NC(=O)[C@@H](Cc1c[nH]cn1)NC(=O)[C@H](CO)NC(=O)[C@H](CC(C)C)NC(=O)[C@H](CCCNC(=N)N)NC(=O)[C@@H]1CCCN1C(=O)[C@H](CCCNC(=N)N)NC(=O)[C@@H]1CCC(=O)N1)C(=O)N[C@H](C)C(=O)N[C@H](Cc1ccccc1)C(=O)O` [Example 56, pE-R-P-R-L-S-h-K-G-P-nle-a-f-OH] ([pGlu]RPRLS[dH]KGP[dNle][dA][dF]-OH), in that order: 8.17 and 5.52 h.
The corresponding values for `CCCC[C@@H](NC(=O)[C@@H]1CCCN1C(=O)CNC(=O)[C@H](CCCCN)NC(=O)[C@H](Cc1c[nH]cn1)NC(=O)[C@@H](C)NC(=O)[C@H](CC(C)C)NC(=O)[C@H](CCCNC(=N)N)NC(=O)[C@@H](C)NC(=O)[C@H](CCCNC(=N)N)NC(=O)[C@@H]1CCC(=O)N1)C(=O)N[C@H](C)C(=O)N[C@H](Cc1ccccc1)C(=O)O` [Example 49, pE-R-a-R-L-a-H-K-G-P-nle-a-f-OH] ([pGlu]R[dA]RL[dA]HKGP[dNle][dA][dF]-OH) are 6.21 and > 16.7 h.
Regarding `CCCC[C@@H](NC(=O)[C@@H]1CCCN1C(=O)CNC(=O)[C@H](CCCCN)NC(=O)[C@H](Cc1c[nH]cn1)NC(=O)[C@@H](C)NC(=O)[C@H](CC(C)C)NC(=O)[C@H](CCCNC(=N)N)NC(=O)[C@@H]1CCCN1C(=O)[C@H](CCCNC(=N)N)NC(=O)[C@@H]1CCC(=O)N1)C(=O)N1CCC[C@@H]1C(=O)N[C@H](Cc1ccccc1)C(=O)O` [Example 13, pE-R-P-R-L-a-H-K-G-P-nle-p-f-OH] ([pGlu]RPRL[dA]HKGP[dNle][dP][dF]-OH), the pEC50 in data set [1] was 8.96. Further, in data set [2], the half-life was > 16.7 h.
